Laboratory results: patent EP3002287B1, “Thiochromeno[2,3-c]quinolin-12-one derivatives and their use as topoisomerase inhibitors” (National Defense Medical Center, priority 2014, dated 2016)

Columns and labels:
[1] = tested on: NCI/ADR-RES; assay: NCI in vitro 60-cell drug screen (SRB assay); assay type: cell-based; conditions: NCI/ADR-RES (Ovarian cancer); 10^-5 molar concentration; 48 hours
[2] = tested on: MALME-3M; assay: NCI in vitro 60-cell drug screen (SRB assay); assay type: cell-based; conditions: MALME-3M (Melanoma); 10^-5 molar concentration; 48 hours
[3] = tested on: U251; assay: NCI in vitro 60-cell drug screen (SRB assay); assay type: cell-based; conditions: U251 (CNS cancer); 10^-5 molar concentration; 48 hours
[4] = tested on: RPMI-8226; assay: NCI in vitro 60-cell drug screen (SRB assay); assay type: cell-based; conditions: RPMI-8226 (Leukemia); 10^-5 molar concentration; 48 hours
[5] = tested on: NCI-H522; assay: NCI in vitro 60-cell drug screen (SRB assay); assay type: cell-based; conditions: NCI-H522 (Non-small cell lung cancer); 10^-5 molar concentration; 48 hours
[6] = tested on: HS 578T; assay: NCI in vitro 60-cell drug screen (SRB assay); assay type: cell-based; conditions: HS 578T (Breast cancer); 10^-5 molar concentration; 48 hours
[7] = tested on: M14; assay: NCI in vitro 60-cell drug screen (SRB assay); assay type: cell-based; conditions: M14 (Melanoma); 10^-5 molar concentration; 48 hours
[8] = tested on: K-562; assay: NCI in vitro 60-cell drug screen (SRB assay); assay type: cell-based; conditions: K-562 (Leukemia); 10^-5 molar concentration; 48 hours
[9] = tested on: NCI-H460; assay: NCI in vitro 60-cell drug screen (SRB assay); assay type: cell-based; conditions: NCI-H460 (Non-small cell lung cancer); 10^-5 molar concentration; 48 hours
[10] = tested on: UO-31; assay: NCI in vitro 60-cell drug screen (SRB assay); assay type: cell-based; conditions: UO-31 (Renal cancer); 10^-5 molar concentration; 48 hours
[11] = tested on: SK-MEL-28; assay: NCI in vitro 60-cell drug screen (SRB assay); assay type: cell-based; conditions: SK-MEL-28 (Melanoma); 10^-5 molar concentration; 48 hours
[12] = tested on: SF-268; assay: NCI in vitro 60-cell drug screen (SRB assay); assay type: cell-based; conditions: SF-268 (CNS cancer); 10^-5 molar concentration; 48 hours
[13] = tested on: UACC-62; assay: NCI in vitro 60-cell drug screen (SRB assay); assay type: cell-based; conditions: UACC-62 (Melanoma); 10^-5 molar concentration; 48 hours
[14] = tested on: SNB-75; assay: NCI in vitro 60-cell drug screen (SRB assay); assay type: cell-based; conditions: SNB-75 (CNS cancer); 10^-5 molar concentration; 48 hours
[15] = tested on: ACHN; assay: NCI in vitro 60-cell drug screen (SRB assay); assay type: cell-based; conditions: ACHN (Renal cancer); 10^-5 molar concentration; 48 hours
[16] = tested on: 786-0; assay: NCI in vitro 60-cell drug screen (SRB assay); assay type: cell-based; conditions: 786-0 (Renal cancer); 10^-5 molar concentration; 48 hours
[17] = tested on: HCC-2998; assay: NCI in vitro 60-cell drug screen (SRB assay); assay type: cell-based; conditions: HCC-2998 (Colon cancer); 10^-5 molar concentration; 48 hours
[18] = tested on: SNB-19; assay: NCI in vitro 60-cell drug screen (SRB assay); assay type: cell-based; conditions: SNB-19 (CNS cancer); 10^-5 molar concentration; 48 hours
[19] = tested on: SW-620; assay: NCI in vitro 60-cell drug screen (SRB assay); assay type: cell-based; conditions: SW-620 (Colon cancer); 10^-5 molar concentration; 48 hours
[20] = tested on: RXF 393; assay: NCI in vitro 60-cell drug screen (SRB assay); assay type: cell-based; conditions: RXF 393 (Renal cancer); 10^-5 molar concentration; 48 hours
[21] = tested on: SK-MEL-2; assay: NCI in vitro 60-cell drug screen (SRB assay); assay type: cell-based; conditions: SK-MEL-2 (Melanoma); 10^-5 molar concentration; 48 hours
[22] = tested on: MOLT-4; assay: NCI in vitro 60-cell drug screen (SRB assay); assay type: cell-based; conditions: MOLT-4 (Leukemia); 10^-5 molar concentration; 48 hours
[23] = tested on: NCI-H23; assay: NCI in vitro 60-cell drug screen (SRB assay); assay type: cell-based; conditions: NCI-H23 (Non-small cell lung cancer); 10^-5 molar concentration; 48 hours
[24] = tested on: MCF7; assay: NCI in vitro 60-cell drug screen (SRB assay); assay type: cell-based; conditions: MCF7 (Breast cancer); 10^-5 molar concentration; 48 hours
[25] = tested on: HCT-15; assay: NCI in vitro 60-cell drug screen (SRB assay); assay type: cell-based; conditions: HCT-15 (Colon cancer); 10^-5 molar concentration; 48 hours
[26] = tested on: OVCAR-3; assay: NCI in vitro 60-cell drug screen (SRB assay); assay type: cell-based; conditions: OVCAR-3 (Ovarian cancer); 10^-5 molar concentration; 48 hours
[27] = tested on: UACC-257; assay: NCI in vitro 60-cell drug screen (SRB assay); assay type: cell-based; conditions: UACC-257 (Melanoma); 10^-5 molar concentration; 48 hours
[28] = tested on: LOX IMVI; assay: NCI in vitro 60-cell drug screen (SRB assay); assay type: cell-based; conditions: LOX IMVI (Melanoma); 10^-5 molar concentration; 48 hours
[29] = tested on: OVCAR-5; assay: NCI in vitro 60-cell drug screen (SRB assay); assay type: cell-based; conditions: OVCAR-5 (Ovarian cancer); 10^-5 molar concentration; 48 hours
[30] = tested on: SK-MEL-5; assay: NCI in vitro 60-cell drug screen (SRB assay); assay type: cell-based; conditions: SK-MEL-5 (Melanoma); 10^-5 molar concentration; 48 hours
[31] = tested on: OVCAR-8; assay: NCI in vitro 60-cell drug screen (SRB assay); assay type: cell-based; conditions: OVCAR-8 (Ovarian cancer); 10^-5 molar concentration; 48 hours
[32] = tested on: COLO 205; assay: NCI in vitro 60-cell drug screen (SRB assay); assay type: cell-based; conditions: COLO 205 (Colon cancer); 10^-5 molar concentration; 48 hours
[33] = tested on: PC-3; assay: NCI in vitro 60-cell drug screen (SRB assay); assay type: cell-based; conditions: PC-3 (Prostate cancer); 10^-5 molar concentration; 48 hours
[34] = tested on: T-47D; assay: NCI in vitro 60-cell drug screen (SRB assay); assay type: cell-based; conditions: T-47D (Breast cancer); 10^-5 molar concentration; 48 hours
[35] = tested on: HOP-92; assay: NCI in vitro 60-cell drug screen (SRB assay); assay type: cell-based; conditions: HOP-92 (Non-small cell lung cancer); 10^-5 molar concentration; 48 hours
[36] = tested on: 60 cell lines; assay: NCI in vitro 60-cell drug screen (SRB assay), whole panel statistics; conditions: mean over the cell panel; 10^-5 molar concentration; 48 hours
[37] = tested on: HOP-62; assay: NCI in vitro 60-cell drug screen (SRB assay); assay type: cell-based; conditions: HOP-62 (Non-small cell lung cancer); 10^-5 molar concentration; 48 hours

Compound	Growth percent [1]	Growth percent [2]	Growth percent [3]	Growth percent [4]	Growth percent [5]	Growth percent [6]	Growth percent [7]	Growth percent [8]	Growth percent [9]	Growth percent [10]	Growth percent [11]	Growth percent [12]	Growth percent [13]	Growth percent [14]	Growth percent [15]	Growth percent [16]	Growth percent [17]	Growth percent [18]	Growth percent [19]	Growth percent [20]	further results
O=c1c2cc(Cl)ccc2sc2c(N3CCN(c4ccccc4)CC3)nc3ccccc3c12 [Compound 12, 10-Chloro-6-(4-phenylpiperazin-1-yl)-12H-thiochromeno[2,3-c] quinolin-12-one]	100.81%	121.84%	96.09%	99.93%	93.50%	85.20%	104.02%	112.37%	103.24%	63.85%	104.22%	103.82%	104.48%	94.73%	94.99%	101.58%	105.23%	105.57%	100.20%	107.68%	Growth percent [21]: 104.26%; Growth percent [22]: 107.23%; Growth percent [23]: 93.80%; Growth percent [24]: 74.16%; Growth percent [25]: 99.81%; Growth percent [26]: 109.63%; Growth percent [27]: 93.68%; Growth percent [28]: 95.15%; Growth percent [29]: 108.10%; Growth percent [30]: 103.57%; Growth percent [31]: 90.34%; Growth percent [32]: 111.67%; Growth percent [33]: 90.66%; Growth percent [34]: 104.57%; Growth percent [35]: 81.27%; Growth percent, Mean [36]: 99.30%; Growth percent [37]: 86.00%
O=c1c2ccc(Cl)cc2sc2c(Cl)nc3ccccc3c12 [Compound 3, 6,9-Dichloro-12H-thiochromeno[2,3-c]quinolin-12-one]	102.80%	95.87%	101.71%	100.19%	96.81%	95.14%	106.18%	101.04%	103.14%	66.06%	101.80%	109.60%	89.69%	77.88%	86.84%	105.25%	123.28%	107.89%	99.06%	102.55%	Growth percent [21]: 95.54%; Growth percent [22]: 98.04%; Growth percent [23]: 85.12%; Growth percent [24]: 82.58%; Growth percent [25]: 102.28%; Growth percent [26]: 111.27%; Growth percent [27]: 104.47%; Growth percent [28]: 90.53%; Growth percent [29]: 100.07%; Growth percent [30]: 97.42%; Growth percent [31]: 101.62%; Growth percent [32]: 112.15%; Growth percent [33]: 91.59%; Growth percent [34]: 110.10%; Growth percent [35]: 90.83%; Growth percent, Mean [36]: 98.11%; Growth percent [37]: 82.02%
